Results as given in patent US20250127778A1, “CANCER IMMUNOTHERAPY COMPOSITION CONTAINING INTERACTION INHIBITOR OF STING AND TRIM29 AS ACTIVE INGREDIENT” (SPARK BIOPHARMA, INC, priority 2021, published 2025).

Columns and labels:
[1] = test system: phosphorylation of downstream signaling proteins TBK1 and IRF3; assay: Western blotting of STING sub-immune signaling pathway activation; assay type: cell-based; conditions: in combination with cGAMP; FIG. 7
Method: First, the A431 cell line was seeded in a transparent 12-well plate and cultured for one day. Thereafter, the cells were treated with the compounds of Formulas 1 to 6, respectively, and then cultured for additional 24 hours. Finally, after supernatant culture medium of the cells was removed, the remaining supernatant was diluted and removed with PBS (phosphate buffer saline) to prepare a Western blotting sample. All procedures for preparing Western blotting sample were performed at 4° C. […] The protein concentration of the supernatant was measured by using the Micro BCA™ protein assay kit (ThermoFisher) according to the protocol of the manufacturer. […] The treated samples were analyzed by SDS-PAGE, then transferred to a PVDF membrane, and cultured in a TBST solution containing 4% BSA for 30 minutes. […] Finally, after four TBST washing processes, the solution was developed with an ECL (enhanced chemiluminescence) prime solution of Amersham, the chemical luminescence signal was measured by using ChemiDoc MP of Bio-Rad Laboratories, Inc., the obtained results were quantified by using the ImageLab 6.0 program, and the results were plotted by using the Prism 8.0 program. […]

TRIM29 = molecular target: T1, TRIM29 (Homo sapiens, UniProt Q14134); assay: ITDRF in A431 cells, TRIM29; assay type: binding; conditions: FIG. 12
T1 construct: endogenous in cells; host or cells: A431
T1 sequence (Q14134 1-588): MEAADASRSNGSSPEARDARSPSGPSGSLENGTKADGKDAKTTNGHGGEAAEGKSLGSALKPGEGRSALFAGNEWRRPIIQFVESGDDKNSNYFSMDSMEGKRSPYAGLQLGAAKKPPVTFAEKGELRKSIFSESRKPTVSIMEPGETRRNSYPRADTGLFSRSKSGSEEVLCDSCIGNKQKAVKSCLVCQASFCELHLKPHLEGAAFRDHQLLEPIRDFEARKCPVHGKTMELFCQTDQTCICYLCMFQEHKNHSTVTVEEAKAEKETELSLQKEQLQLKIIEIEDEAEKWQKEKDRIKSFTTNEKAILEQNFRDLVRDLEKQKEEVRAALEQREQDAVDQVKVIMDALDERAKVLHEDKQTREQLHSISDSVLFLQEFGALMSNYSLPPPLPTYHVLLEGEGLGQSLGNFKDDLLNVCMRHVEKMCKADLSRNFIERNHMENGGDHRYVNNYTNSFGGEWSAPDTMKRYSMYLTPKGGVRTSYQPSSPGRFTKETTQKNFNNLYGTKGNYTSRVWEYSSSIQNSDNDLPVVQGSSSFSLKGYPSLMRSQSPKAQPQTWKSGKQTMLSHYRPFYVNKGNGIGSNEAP
From the text: It was verified whether the oxopiperazine derivative of the present invention was bound to STING among STING and TRIM29 to inhibit interaction thereof, based on the compound of Formula 1, by the cellular thermal shift assay (CETSA) and the isothermal dose response fingerprint (ITDRF) which were major technologies for verifying the interaction between small molecule compounds and target proteins. (D. M. Molinaetal., Science 2013, 341, 84-87.)
To verify the target of the compound of Formula 1 using the CETSA technique, the human A431 cell lines and mouse Raw264.7 cell lines were seeded on a 100-mm or 150-mm culture dish and cultured for one day. […] Afterwards, centrifugation was performed at 20000 g for 20 minutes at 4° C., the supernatant was transferred to a new container, and each concentration was measured by using the Micro BCA™ protein assay kit (ThermoFisher) according to the protocol of the manufacturer. The concentration of each sample was equally adjusted by using the RIPA lysis buffer, the 5× SDS-PAGE loading buffer (Biosesang) was added according to the ratio of the manufacturer, and the resultant was treated at 95° C. for 5 minutes and analyzed by using the Western blotting method described above.

CD8+ T cells = assay: T cell death analysis (Annexin V/7-AAD) of CD8+ T cells; assay type: cell-based; conditions: alone or in combination with cGAMP, 24 hours; FIG. 21
Method: CD8^+ T cells were obtained from the lymph nodes of C57BL/6 mice and separated by using MACS. CD8^+ T cells were activated on plates pre-coated with 1 μg/mL anti-CD3 and 0.5 μg/mL of anti-CD28 in the presence of 5 ng/ml of IL-2. After incubation for 24 hours in a 5% CO2 incubator at 37° C., activated CD8^+ T cells were treated with cGAMP and/or the compound of Formula 1 in various concentrations and incubated for additional 24 hours. The cells were harvested and stained with Annexin V/7-AAD to observe cell death. Data shown refer to at least three independent experiments.

SMILES: COc1ccc(CC2=CN(c3ccc(C(=O)NC[C@H]4CCCO4)cc3[N+](=O)[O-])[C@H](C(C)C)C(=O)N2Cc2ccc(O)cc2)cc1 [Formula 1, 4-((R)-4-(4-hydroxybenzyl)-2-isopropyl-5-(4-methoxybenzyl)-3-oxo-3,4-dihydropyrazin-1 (2H)-yl)-3-nitro-N-(((R)-tetrahydrofuran-2-yl)methyl)benzamide]
- degree of phosphorylation of TBK1 and IRF3 [1]: further increased
- ITDRF effect on TRIM29 (TRIM29): without affecting TRIM29
- death of cytotoxic T cells (CD8+ T cells): did not induce or promote the death of cytotoxic T cells
